# Assay results as given in patent US20250243174A1, “ANTITUMORAL COMPOUNDS” (PHARMA MAR, S.A., priority 2021, published 2025).
# Key:
# Assay type in all cases: in vivo
# Conditions in all cases: for TV, median (IQR) / Median survival time: iv Q7dx3; for TV, median (IQR): high dose: PM060184 16, Comp. 2 2, Comp. 3 1 mg/kg
# HGC-27 xenografts = assay: Example 6, gastric xenograft model HGC-27
# Procedure: (§1) Female athymic nu/nu mice (Harlan Laboratories Models, S.L. Barcelona, Spain or Envigo, Spain) were utilized for all experiments. Animal were housed in individually ventilated cages Sealsafe® Plus, Techniplast S.P.A.), up to ten per cage on a 12-hour light-dark cycle at 21-23° C. and 40-60% humidity. Mice were allowed free access to irradiated standard rodent diet (Tecklad 2914C) and sterilized water. Animals were acclimated for at least 5 days prior to tumor implantation with a tumor cell suspension.
# HGC27 cells were maintained in vitro at 37° C. with 5% CO2 in Iscove's Modified Dulbecco's Medium (Sigma Aldrich, Co). Culture cells were passage every 3 to 5 days on reaching confluence. Each animal was subcutaneously implanted (on the right flank using 26G needle and a 1 cc syringe) at 4-6 weeks of age with 5×10^6 HGC-27 cells suspended in 0.05 mL of a solution consisting of 50% Matrigel® (Corning Incorporated Life Sciences), 50% medium without serum or antibiotics.
# (§2) All treatments were intravenously administered on a weekly basis at their MTD, ¼ MTD and 1/16 MTD (high, medium and low dose).
# (§3) Briefly: • 4 to 6 week-old athymic nu/nu female mice were subcutaneously implanted with tumor cells growing in culture. • When tumors reached a certain volume, tumor bearing animals (N=8-10/group) were randomly allocated into treatment groups. • Tumor dimensions and body weights were recorded 2-3 times per week starting from the first day of treatment (Day 0). Treatments producing >20% lethality and/or 20% net body weight loss were considered toxic. Tumor volume was calculated using the equation (a·b^2)/2, where a and b were the longest and shortest diameters, respectively. Animals were euthanized when their tumors reached ca. 2,000 mm^3 and/or severe necrosis was seen. • Median was calculated for tumor volume on each measurement day. • Antitumor effect was assessed comparing tumor volume data from groups following the 1st, 2nd, 3rd study weeks, or more depending on the case, using a two-tailed Mann-Whitney U test. The data are presented as medians and interquartile range (IQR). • Complete tumor regression (CR) was defined when tumor volume<63 mm^3 for 2 or more consecutive measurements. • Treatment tolerability was assessed by monitoring body weight evolution, clinical signs of systemic toxicity as well as evidences of local damage at the injection site.
# (§4) PM060184 was provided in the form of freeze-dried vials of lyophilized product. Each vial was reconstituted with water for infusion to a concentration of 2.5 mg/mL.
# (§5) Compounds 2 and 3 were provided in the powder form and were solubilized with hydroxy-propyl-β-cyclodextrin (HPβCD), reaching a concentration of 1 mg/ml or 0.2 mg/ml, respectively. Placebo was provided in the form of lyophilised cake containing 1.2 g of hydroxy-propyl-β-cyclodextrin (HPβCD) which was reconstituted with water for infusion.
# (§6) In these experiments, compounds 2, 3 and PM060184, as well as placebo, were intravenously administered once per week for 3 consecutive weeks, on Days 0, 7 and 14, whenever it was possible.
# The experiment was carried out as previously explained. When tumors reached ca. 165-175 mm^3, tumor bearing animals (N=8/group) were randomly allocated into the following treatment groups:
# (§7) Treatments were initiated on Day 0.
# H460 xenografts = assay: Example 5, NSCLC xenograft model H460
# Procedure: as §1
# H460 cells were maintained in vitro at 37° C. with 5% CO2 in Dulbecco's Modified Eagle's Medium (Sigma-Aldrich, Co). Culture cells were passaged every 3 to 5 days upon reaching confluence. Each animal was subcutaneously implanted (on the right flank using 26G needle and a 1 cc syringe) at 4-6 weeks of age with 5×10^6 H460 cells suspended in 0.05 mL of a solution consisting of 50% Matrigel® (Corning Incorporated Life Sciences) and 50% medium without serum or antibiotics.
# as §2, §3, §4, §5, §6
# The experiment was carried out as previously explained. When tumors reached ca. 160-170 mm^3, tumor bearing animals (N=10/group) were randomly allocated into the following treatment groups:
# as §7
# HCT-116 xenografts = assay: Example 7, colon xenograft model HCT-116
# Procedure: as §1
# HCT116 cells were maintained in vitro at 37° C., 5% Co2 in McCoy's 5A Medium (Sigma Aldrich, Co.). Culture cells were passage every 3 to 5 days on reaching confluence. Each animal was subcutaneously implanted (on the right flank using 26G needle and a 1 cc syringe) at 4-6 weeks of age with 5×10^6 HCT116 cells suspended in 0.05 mL of a solution consisting of 50% Matrigel® (Corning Incorporated Life Sciences) and 50% medium without serum or antibiotics.
# as §2, §3, §4, §5, §6
# The experiment was carried out as previously explained. When tumors reached ca. 195-205 mm^3, tumor bearing animals (N=10/group) were randomly allocated into the following treatment groups:
# as §7
# [1] = high dose: PM060184 16.0, Comp. 2 2.0, Comp. 3 1.0 mg/kg, ud = group not reached mortality
# [2] = low dose: PM060184 1.0, Comp. 2 0.125, Comp. 3 0.0625 mg/kg
# [3] = medium dose: PM060184 4.0, Comp. 2 0.5, Comp. 3 0.25 mg/kg
# [4] = high dose: compound 2 2.0, compound 3 1.0, PM060184 16 mg/kg
smiles,measurement,setting,value
"C/C=C\C[C@@H](C/C=C\NC(=O)[C@@H](NC(=O)\C=C/C=C\C(C)=C\[C@H](C)[C@@H]1CC=C(OC)C(=O)O1)C(C)(C)C)OC(N)=O [PM060184, reference compound]",mean body weight reduction,"HGC-27 xenografts; Day 2, compound 2 2.0, compound 3 1.0, PM060184 16 mg/kg",ca. −4.1%
same,"TV, median (IQR)",HGC-27 xenografts; Day 7,250.7 (212.8-433.0) mm3
same,"TV, median (IQR)",HGC-27 xenografts; Day 14,124.8 (102.8-213.2) mm3
same,"TV, median (IQR)",HGC-27 xenografts; Day 21,88.5 (68.2-118.3) mm3
same,"TV, median (IQR)",HGC-27 xenografts; Day 28,114.4 (63.7-155.1) mm3
same,"TV, median (IQR)",HGC-27 xenografts; Day 35,267.3 (100.4-414.0) mm3
same,animals that reached a complete remission (number out of eight),HGC-27 xenografts; PM060184 16 mg/kg (high-dose),three out of eight
same,Median survival time,HGC-27 xenografts; [1],56 days
same,mean time frame with tumor remission,"HGC-27 xenografts; high dose: compound 2 2.0, compound 3 1.0, PM060184 16 mg/kg, last observed day 63",18 days
same,Median survival time,HGC-27 xenografts; [2],15 days
same,Median survival time,HGC-27 xenografts; [3],27 days
same,tumor reduction compared to placebo,"H460 xenografts; Day 7, higher doses 16, 2 or 1 mg/kg","very strong, statistically significant tumor reduction"
same,"TV, median (IQR)",H460 xenografts; Day 7,100.1 (80.6-119.0) mm3
same,"TV, median (IQR)",H460 xenografts; Day 14,97.8 (74.5-149.3) mm3
same,"TV, median (IQR)",H460 xenografts; Day 21,129.4 (83.5-172.3) mm3
same,"TV, median (IQR)",H460 xenografts; Day 28,631.0 (454.0-873.9) mm3
same,"TV, median (IQR)",H460 xenografts; Day 35,1470 (1470-1666) mm3
same,animals with complete tumor remission (number out of 10),H460 xenografts; PM060184 16 mg/kg,Four out of 10
same,Median survival time,"H460 xenografts; high dose: PM060184 16.0, Comp. 2 2.0, Comp. 3 1.0 mg/kg",37 days
same,tumor remissions lasted,H460 xenografts; [4],two
same,Median survival time,H460 xenografts; [2],16 days
same,Median survival time,H460 xenografts; [3],30 days
same,body weight decrease,"H460 xenografts; recorded on Day 12, PM060184 16 mg/kg",ca. −6.8%
same,"TV, median (IQR)",HCT-116 xenografts; Day 7,140.5 (123.0-157.3) mm3
same,"TV, median (IQR)",HCT-116 xenografts; Day 14,59.2 (50.7-84.2) mm3
same,"TV, median (IQR)",HCT-116 xenografts; Day 21,63.8 (43.6-80.0) mm3
same,"TV, median (IQR)",HCT-116 xenografts; Day 28,265.7 (195.2-284.3) mm3
same,"TV, median (IQR)",HCT-116 xenografts; Day 35,650.2 (516.7-732.6) mm3
same,Median survival time,HCT-116 xenografts; [1],47 days
same,mean time with tumor remission,HCT-116 xenografts; [4],5.8 days
same,animals that reached a complete remission (n/10),HCT-116 xenografts; high-dose: PM060184 16 mg/kg,6/10
same,Median survival time,HCT-116 xenografts; [2],19 days
same,Median survival time,HCT-116 xenografts; [3],43 days
same,body weight decrease,"HCT-116 xenografts; recorded on Day 2, PM060184 16 mg/kg",ca. −3.2%
